# Source: patent publication US20150031102A1, “METHODS AND COMPOSITIONS FOR ENHANCED PRODUCTION OF BUTANOL BY CLOSTRIDIA” (Butrolix LLC, priority 2012, published 2015)
# Key:
# [1] = tested on: C. beijerinckii NCIMB 8052; test: Germination and sequential batch cultures of C. beijerinckii NCIMB 8052 grown at 37° C. (growth OD600, final pH, ceric ion reactive compounds); format: cell-based, Clostridium beijerinckii
# Method: (§1) Clostridium acetobutylicum ATCC 824 and C. beijerinckii NCIMB 8052 are available from several commercial microbial culture collections including the American Type Culture Collection (ATCC), Manassas, Va., USA. The strain grown at 30 C or 37 C in YE broth, which contained, per liter: 5.0 g yeast extract, 2.5 g casamino acids, 1.0 g L-asparagine, 0.5 g cysteine·HCl, 56 mg K2HPO4, 56 mg KH2PO4, 82 mg anhydrous MgSO4, 8 mg FeSO4.H2O, 6 mg MnSO4.H2O and 10 g glucose. Alternatively, strains were grown in YEPG broth, which was identical to YE expect that K2HPO4 and KH2PO4 were increased to 145 mg/L each and glucose was increased to 60 g/L. The pH of the media was adjusted to 7.2 using 45% KOH prior to sterilization by autoclaving. Media were solidified by addition of 1.5% Bacteriological Agar, Acumedia Manufacturers, Inc., Lansing, Mich. All cultures were grown in anaerobic conditions using the AnaeroPack System, Mitsubishi Gas Chemical Co., Inc., Japan, and GasPak EZ Gas Generating Sachets, Becton, Dickinson and Co., Sparks, Md. Spore stocks were kept at room temperature on agar-solidified media and were activated by suspending spores in 0.5 mL to 1.0 mL of medium followed by heating for 10 min at 80 C before inoculation into growth medium.
# (§2) Growth of bacterial cultures was measured spectrophotometrically using optical density at 600 nm and pH of cell-free culture supernatants was measured using a hand-held Shindengen ISFET pH Meter KS501, Shendengen Electric Manufacturing Co., Ltd., Bannockburn, Ill.
# (§3) Total alcohols in cell-free culture supernatants were measured using a modification of a colorimetric method based on ceric ammonium nitrate (Reid and Truelove, 1952). The ceric ion reagent was prepared by adding 1.3 mL of concentrated nitric acid to 40 mL of distilled water, then 10.96 g of ceric ammonium nitrate was dissolved in the dilute nitric acid solution and the solution was brought to a final volume of 50 mL. For the assay, […] of butanol standard or culture supernatant was mixed with […] distilled water in a disposable plastic cuvette followed by addition of […] of the ceric ion reagent. The sample was mixed by inverting the cuvette six times then exactly two minutes later the optical density at 500 nm wavelength was measured. The concentration of total alcohols was determined by comparison with a standard curve prepared by using butanol diluted in distilled water.
# Spores of C. beijerinckii NCIMB 8052 were germinated and grown overnight at 37 C under anaerobic conditions in YEPG medium that either contained 50 nM of peptide SEQ ID NO: 145 or no added peptide. After about 24 h of growth, […] of the untreated culture was transferred (transfer 1) to each of two flasks that contained 10 mL of YEPG with either no treatment or with 50 nM peptide SEQ ID NO: 145. At the same time, 10 μL of the culture that was germinated in the presence of peptide SEQ ID NO: 145 was also transferred to 10 mL of YEPG that contained 50 nM of peptide SEQ ID NO: 145. Thereafter, […] of each culture was transferred, at the same time, every 24-48 h to 10 mL of fresh YEPG that contained the same peptide treatment or no treatment. Each culture was stopped after 72 hours of incubation and optical density, pH and ceric ion reactive chemicals were measured. Addition of peptide SEQ ID NO: 145 appeared to have no effect on endpoint measurements of the growth of C. beijerinckii NCIMB 8052 after germination or during sequential transfers of cultures at 37° C. (Table 18 and FIG. 10). All three cultures stopped growing at the second transfer. Likewise, there was no apparent effect on endpoint measurements of pH or ceric ion reactive compounds (Tables 19 and 20 and FIGS. 11 and 12).
# [2] = tested on: C. beijerinckii NCIMB 8052; test: Sequential batch cultures of C. beijerinckii NCIMB 8052 grown at 30° C. in YEPG (growth OD600, final pH, ceric ion reactive compounds); format: cell-based, Clostridium beijerinckii
# Method: as §1, §2, §3
# Spores of C. beijerinckii NCIMB 8052 were germinated and grown overnight at 30 C under anaerobic conditions in YEPG medium. After about 24 h of growth, […] of the culture was transferred (transfer 1) to each of four flasks that contained 10 mL of YEPG and either had no treatment or were treated with peptide SEQ ID NO: 145 (see Table 8) at 1 nM, 10 nM or 50 nM. Thereafter, […] of each culture was transferred, at the same time, every 24-48 h to 10 mL of fresh YEPG that contained the same peptide treatment or no treatment. Each culture was stopped after 96 hours of incubation and optical density, pH and ceric ion reactive chemicals were measured. Sequential batch culturing was continued through 6 transfers at which point all cultures appeared to be growing to the same extent (Table 12 and FIG. 4).
# [3] = 50 nM added after germination, transfer 1, 72 h culture
# [4] = 50 nM added after germination, transfer 2, 72 h culture
# [5] = 50-50 (germinated and transferred in 50 nM), transfer 1, 72 h culture
# [6] = 50-50 (germinated and transferred in 50 nM), transfer 2, 72 h culture
# [7] = 50-50 (spores germinated in 50 nM peptide), transfer 0 (germinated culture), 72 h culture
# [8] = 10 nM, transfer 1, 96 h culture
# [9] = 10 nM, transfer 2, 96 h culture
# [10] = 10 nM, transfer 3, 96 h culture
# [11] = 10 nM, transfer 4, 96 h culture
# [12] = 10 nM, transfer 5, 96 h culture
# [13] = 10 nM, transfer 6, 96 h culture
# [14] = 50 nM, transfer 1, 96 h culture
# [15] = 50 nM, transfer 2, 96 h culture
# [16] = 50 nM, transfer 3, 96 h culture
# [17] = 50 nM, transfer 4, 96 h culture
# [18] = 50 nM, transfer 5, 96 h culture
# [19] = 50 nM, transfer 6, 96 h culture
substance,measurement,setting,value
IRLIT (Derived from Clostridium beijerinckii SEQ ID NO: 141) [peptide SEQ ID NO: 145],Effect on germination and growth (visual observations through the course of growth),[1]; 50 nM,repressive effect on germination and growth
same,Final pH,[1]; [3],4.1
same,Optical density at 600 nm,[1]; [3],1.313
same,Optical density of ceric ion reactive compounds measured at 500 nm,[1]; [3],−0.026
same,Final pH,[1]; [4],6.5
same,Optical density at 600 nm,[1]; [4],0.011
same,Optical density of ceric ion reactive compounds measured at 500 nm,[1]; [4],0.006
same,Effect on endpoint measurements of growth,"[1]; 50 nM, after germination or during sequential transfers",no effect
same,Final pH,[1]; [5],4.1
same,Optical density at 600 nm,[1]; [5],1.420
same,Optical density of ceric ion reactive compounds measured at 500 nm,[1]; [5],−0.038
same,Final pH,[1]; [6],6.6
same,Optical density at 600 nm,[1]; [6],0.011
same,Optical density of ceric ion reactive compounds measured at 500 nm,[1]; [6],0.002
same,Final pH,[1]; [7],4.1
same,Optical density at 600 nm,[1]; [7],1.158
same,Optical density of ceric ion reactive compounds measured at 500 nm,[1]; [7],−0.017
same,Culture degeneration in terms of production of total alcohols,[2],transiently increase culture degeneration
same,Final pH,"[2]; 1 nM, transfer 1, 96 h culture",5.3
same,Optical density at 600 nm,"[2]; 1 nM, transfer 1, 96 h culture",2.086
same,Optical density of ceric ion reactive compounds measured at 500 nm,"[2]; 1 nM, transfer 1, 96 h culture",0.065
same,Final pH,"[2]; 1 nM, transfer 2, 96 h culture",5.3
same,Optical density at 600 nm,"[2]; 1 nM, transfer 2, 96 h culture",2.086
same,Optical density of ceric ion reactive compounds measured at 500 nm,"[2]; 1 nM, transfer 2, 96 h culture",0.032
same,Final pH,"[2]; 1 nM, transfer 3, 96 h culture",5.1
same,Optical density at 600 nm,"[2]; 1 nM, transfer 3, 96 h culture",2.106
same,Optical density of ceric ion reactive compounds measured at 500 nm,"[2]; 1 nM, transfer 3, 96 h culture",0.054
same,Final pH,"[2]; 1 nM, transfer 4, 96 h culture",5.3
same,Optical density at 600 nm,"[2]; 1 nM, transfer 4, 96 h culture",2.115
same,Optical density of ceric ion reactive compounds measured at 500 nm,"[2]; 1 nM, transfer 4, 96 h culture",0.041
same,Final pH,"[2]; 1 nM, transfer 5, 96 h culture",5.3
same,Optical density at 600 nm,"[2]; 1 nM, transfer 5, 96 h culture",2.090
same,Optical density of ceric ion reactive compounds measured at 500 nm,"[2]; 1 nM, transfer 5, 96 h culture",0.061
same,Final pH,"[2]; 1 nM, transfer 6, 96 h culture",5.3
same,Optical density at 600 nm,"[2]; 1 nM, transfer 6, 96 h culture",2.075
same,Optical density of ceric ion reactive compounds measured at 500 nm,"[2]; 1 nM, transfer 6, 96 h culture",0.062
same,Final pH,[2]; [8],5.3
same,Optical density at 600 nm,[2]; [8],2.080
same,Optical density of ceric ion reactive compounds measured at 500 nm,[2]; [8],0.050
same,Final pH,[2]; [9],5.3
same,Optical density at 600 nm,[2]; [9],2.093
same,Optical density of ceric ion reactive compounds measured at 500 nm,[2]; [9],0.008
same,Final pH,[2]; [10],5.0
same,Optical density at 600 nm,[2]; [10],2.078
same,Optical density of ceric ion reactive compounds measured at 500 nm,[2]; [10],0.025
same,Final pH,[2]; [11],5.3
same,Optical density at 600 nm,[2]; [11],2.108
same,Optical density of ceric ion reactive compounds measured at 500 nm,[2]; [11],0.047
same,Final pH,[2]; [12],5.4
same,Optical density at 600 nm,[2]; [12],2.069
same,Optical density of ceric ion reactive compounds measured at 500 nm,[2]; [12],0.065
same,Final pH,[2]; [13],5.3
same,Optical density at 600 nm,[2]; [13],2.062
same,Optical density of ceric ion reactive compounds measured at 500 nm,[2]; [13],0.055
same,Final pH,[2]; [14],5.4
same,Optical density at 600 nm,[2]; [14],2.102
same,Optical density of ceric ion reactive compounds measured at 500 nm,[2]; [14],0.060
same,Final pH,[2]; [15],5.3
same,Optical density at 600 nm,[2]; [15],2.023
same,Optical density of ceric ion reactive compounds measured at 500 nm,[2]; [15],0.023
same,Final pH,[2]; [16],5.2
same,Optical density at 600 nm,[2]; [16],1.936
same,Final pH,[2]; [17],5.3
same,Optical density at 600 nm,[2]; [17],2.061
same,Optical density of ceric ion reactive compounds measured at 500 nm,[2]; [17],0.039
same,Final pH,[2]; [18],5.3
same,Optical density at 600 nm,[2]; [18],2.120
same,Optical density of ceric ion reactive compounds measured at 500 nm,[2]; [18],0.051
same,Final pH,[2]; [19],5.3
same,Optical density at 600 nm,[2]; [19],2.046
same,Optical density of ceric ion reactive compounds measured at 500 nm,[2]; [19],0.059
same,Growth of treated cultures during 96 h of incubation,"[2]; 1, 10, 50 nM, dose dependent manner, data not shown",slow the growth
same,Final pH,"[2]; all cultures (0, 1, 10, 50 nM), after the third transfer",~5.3
same,Number of times that cultures could be transferred,"[2]; through six culture transfers, in comparison with an untreated culture",did not affect
